Key:
[1] = tested on: inactive HIV protease (164) [D25E] (pL448.2); test: Blue/white colony color assay, HIV-PR-LacI fusion protein / β-galactosidase reporter two plasmid system; type: cell-based; conditions: E. coli containing pL448.2; Bluogal indicator media with arabinose inducer, supplemented with indinavir at various concentrations; also blue without indinavir
Procedure: Three E. coli strains, each containing a reporter plasmid for expression of β-galactosidase, and a HIV-PR-LacI expression plasmid for expression of a HIV-PR-LacI fusion protein, were tested using the blue/white color assay of the present invention. These strains were designed to be identical except for mutations within the HIV-PR regions, as set forth below:
Plasmid pL446.1 expresses a fusion protein containing HIV-PR and the LacI gene repressor. Expression is mediated by the ARAB promoter/operator and expression is induced by addition of arabinose sugar to the growth medium.
Media plates were prepared by adding to standard Luria Broth Agar, per liter of Luria Broth Agar, 2,000 μl of 100 mg/ml Ampicillin, 800 μl of 34 mg/ml Chloramrphenicol, 1 ml 1M IPTG. Similarly, indicator media was prepared by adding Bluogal (Life Technologies Inc.) to the media, 16.8 ml Bluogal stock (2% in dimethyl formamide) per liter of Luria Broth Agar. […] The E. coli strains were then plated onto the indicator media and allowed to grow for about 16 hours.

[2] = tested on: HIV-PR variants expressing the resistance-conferring mutations V82T or I84V; test: Colony color assay with site directed HIV-PR variants of known genotype; type: cell-based; conditions: plate with indinavir (MK-639) and Bluogal; only colonies with V82T or I84V variants were white; whiter with V82T and I84V than with V82T
Procedure: Site directed mutagensis was used to construct HIV-PR gene variants encoding the mutations 1) [D25E] […] These variant genes were put into fusion protein expression plasmids in the manner set forth in Example 1, and the resulting fusion protein expression plasmids and a β-galactosidase reporter plasmid expression were subcloned into E. coli, which were then plated on indicator media designed to report E. coli having HIV-PR activity as white colonies and E. coli without HIV-PR activity as blue colonies.
In the method of the present invention, β-galactosidase activity is regulated indirectly by activity of the HIV-PR in the fusion protein expression plasmid. All the E. coli cells used were identical and expressed similar HIV-PR-LacI fusion proteins, except that the HIV-PR genotype is different for different colonies.

## CC(C)(C)NC(=O)[C@@H]1CN(Cc2cccnc2)CCN1C[C@@H](O)C[C@@H](Cc1ccccc1)C(=O)N[C@H]1c2ccccc2C[C@H]1O [indinavir]
[1]
  color of E. coli colonies on indicator media: blue
[2]
  color of E. coli colonies on plate with indinavir and color indicator: white

Source: patent US20010014444A1, “Gene regulator fusion proteins and methods of using the same for determining resistance of a protein to a drug targeted thereagainst” (priority 1998, published 2001)
